Patent publication US9580416B2, “Inhibitors of Bruton's tyrosine kinase” (PHARMACYCLICS LLC, priority 2014, dated 2017)
pIC50: −log10 of the molar value.

Assays:
Type in all cases: biochemical
[1] = target: Btk (Homo sapiens, UniProt Q06187); assay: Btk kinase activity, TR-FRET assay; details: read-out: Btk (IC50)
Method in brief: (§1)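 Enzyme (Btk 0.5 nM; Lck 6 nM) reacted 1 h with inhibitor, ATP at Km and biotin-peptide substrate in pH 7.4 buffer, 10% DMSO. Phosphopeptide detected by Eu-p-Tyr100 antibody plus streptavidin-APC (665/615 nm). IC50 calculated from fitted Ki(app) via ATP/Km correction plus half total enzyme.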

[2] = target: Lck (Homo sapiens, UniProt P06239); assay: Lck kinase activity, TR-FRET assay; details: read-out: LCK (IC50)
Method in brief: as §1

[3] = target: EGFR (Homo sapiens, UniProt P00533); assay: Inhibition of a panel of kinases, in vitro HotSpot kinase assay: EGFR
Description: (§2) The degree of inhibition of a panel of kinases is determined using the in vitro HotSpot kinase assay (purified enzymes, ^33P-ATP, an appropriate substrate and 1 uM ATP).

[4] = target: T1, JAK3 (Homo sapiens, UniProt P52333); assay: Inhibition of a panel of kinases, in vitro HotSpot kinase assay: JAK3
T1 sequence (P52333 1-1124): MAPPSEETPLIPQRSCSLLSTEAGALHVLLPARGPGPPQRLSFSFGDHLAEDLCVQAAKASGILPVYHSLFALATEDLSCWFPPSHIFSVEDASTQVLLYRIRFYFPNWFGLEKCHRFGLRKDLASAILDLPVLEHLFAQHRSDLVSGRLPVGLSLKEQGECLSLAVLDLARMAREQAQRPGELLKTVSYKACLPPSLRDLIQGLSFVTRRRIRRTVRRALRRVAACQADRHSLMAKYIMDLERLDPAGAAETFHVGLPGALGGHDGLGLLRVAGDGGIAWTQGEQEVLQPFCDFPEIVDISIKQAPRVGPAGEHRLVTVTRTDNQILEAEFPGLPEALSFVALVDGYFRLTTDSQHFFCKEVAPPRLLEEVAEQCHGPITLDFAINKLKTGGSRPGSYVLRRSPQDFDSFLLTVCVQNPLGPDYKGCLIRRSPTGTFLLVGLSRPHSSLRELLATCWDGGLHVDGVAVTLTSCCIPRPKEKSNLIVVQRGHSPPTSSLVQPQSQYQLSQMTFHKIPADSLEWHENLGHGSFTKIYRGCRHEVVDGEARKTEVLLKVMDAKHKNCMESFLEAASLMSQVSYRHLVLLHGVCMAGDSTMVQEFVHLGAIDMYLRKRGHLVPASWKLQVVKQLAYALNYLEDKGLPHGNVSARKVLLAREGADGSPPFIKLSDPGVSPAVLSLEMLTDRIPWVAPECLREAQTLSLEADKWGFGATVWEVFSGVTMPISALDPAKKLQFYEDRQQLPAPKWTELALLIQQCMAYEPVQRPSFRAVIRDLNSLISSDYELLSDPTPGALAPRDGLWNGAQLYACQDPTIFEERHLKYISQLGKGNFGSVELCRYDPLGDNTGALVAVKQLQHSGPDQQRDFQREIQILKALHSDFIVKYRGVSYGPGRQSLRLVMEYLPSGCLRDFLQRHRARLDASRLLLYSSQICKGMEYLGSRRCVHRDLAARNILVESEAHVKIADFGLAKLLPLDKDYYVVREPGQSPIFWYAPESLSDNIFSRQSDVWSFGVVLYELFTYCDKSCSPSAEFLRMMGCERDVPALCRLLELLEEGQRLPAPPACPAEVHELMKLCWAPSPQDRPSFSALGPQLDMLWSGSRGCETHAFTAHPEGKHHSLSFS
Description: as §2

Sequence of Lck (P06239 whole entry, species assumed): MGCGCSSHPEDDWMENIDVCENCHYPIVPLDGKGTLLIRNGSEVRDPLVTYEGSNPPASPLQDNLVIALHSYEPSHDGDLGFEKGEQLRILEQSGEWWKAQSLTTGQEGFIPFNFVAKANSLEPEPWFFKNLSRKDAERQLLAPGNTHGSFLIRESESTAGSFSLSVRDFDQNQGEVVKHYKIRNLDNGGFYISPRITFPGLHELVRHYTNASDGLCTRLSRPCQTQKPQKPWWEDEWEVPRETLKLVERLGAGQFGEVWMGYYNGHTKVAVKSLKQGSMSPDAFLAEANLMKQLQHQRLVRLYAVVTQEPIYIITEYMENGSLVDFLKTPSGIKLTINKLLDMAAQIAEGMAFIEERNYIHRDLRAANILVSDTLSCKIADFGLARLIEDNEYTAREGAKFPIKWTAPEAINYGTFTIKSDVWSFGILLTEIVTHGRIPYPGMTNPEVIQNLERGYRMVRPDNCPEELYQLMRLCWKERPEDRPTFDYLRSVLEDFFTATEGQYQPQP
Sequence of Btk (Q06187 whole entry): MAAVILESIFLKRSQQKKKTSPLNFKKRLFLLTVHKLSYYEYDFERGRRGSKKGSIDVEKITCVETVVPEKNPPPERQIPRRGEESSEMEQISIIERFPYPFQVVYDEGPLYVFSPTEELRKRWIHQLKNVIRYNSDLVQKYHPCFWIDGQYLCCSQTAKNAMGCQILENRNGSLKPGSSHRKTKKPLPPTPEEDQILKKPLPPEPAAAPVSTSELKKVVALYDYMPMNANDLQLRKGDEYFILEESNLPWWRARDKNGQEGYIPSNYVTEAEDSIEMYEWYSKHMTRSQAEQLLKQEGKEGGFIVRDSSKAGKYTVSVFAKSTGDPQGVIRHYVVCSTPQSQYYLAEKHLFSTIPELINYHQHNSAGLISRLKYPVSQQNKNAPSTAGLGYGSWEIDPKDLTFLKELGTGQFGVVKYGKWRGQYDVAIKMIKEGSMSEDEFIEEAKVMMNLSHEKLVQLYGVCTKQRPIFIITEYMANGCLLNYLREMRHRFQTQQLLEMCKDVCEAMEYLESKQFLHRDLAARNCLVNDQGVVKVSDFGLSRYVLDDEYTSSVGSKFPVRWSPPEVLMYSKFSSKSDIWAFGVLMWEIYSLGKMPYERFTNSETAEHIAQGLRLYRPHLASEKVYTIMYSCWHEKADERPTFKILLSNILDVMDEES
Sequence of EGFR (P00533 25-1210): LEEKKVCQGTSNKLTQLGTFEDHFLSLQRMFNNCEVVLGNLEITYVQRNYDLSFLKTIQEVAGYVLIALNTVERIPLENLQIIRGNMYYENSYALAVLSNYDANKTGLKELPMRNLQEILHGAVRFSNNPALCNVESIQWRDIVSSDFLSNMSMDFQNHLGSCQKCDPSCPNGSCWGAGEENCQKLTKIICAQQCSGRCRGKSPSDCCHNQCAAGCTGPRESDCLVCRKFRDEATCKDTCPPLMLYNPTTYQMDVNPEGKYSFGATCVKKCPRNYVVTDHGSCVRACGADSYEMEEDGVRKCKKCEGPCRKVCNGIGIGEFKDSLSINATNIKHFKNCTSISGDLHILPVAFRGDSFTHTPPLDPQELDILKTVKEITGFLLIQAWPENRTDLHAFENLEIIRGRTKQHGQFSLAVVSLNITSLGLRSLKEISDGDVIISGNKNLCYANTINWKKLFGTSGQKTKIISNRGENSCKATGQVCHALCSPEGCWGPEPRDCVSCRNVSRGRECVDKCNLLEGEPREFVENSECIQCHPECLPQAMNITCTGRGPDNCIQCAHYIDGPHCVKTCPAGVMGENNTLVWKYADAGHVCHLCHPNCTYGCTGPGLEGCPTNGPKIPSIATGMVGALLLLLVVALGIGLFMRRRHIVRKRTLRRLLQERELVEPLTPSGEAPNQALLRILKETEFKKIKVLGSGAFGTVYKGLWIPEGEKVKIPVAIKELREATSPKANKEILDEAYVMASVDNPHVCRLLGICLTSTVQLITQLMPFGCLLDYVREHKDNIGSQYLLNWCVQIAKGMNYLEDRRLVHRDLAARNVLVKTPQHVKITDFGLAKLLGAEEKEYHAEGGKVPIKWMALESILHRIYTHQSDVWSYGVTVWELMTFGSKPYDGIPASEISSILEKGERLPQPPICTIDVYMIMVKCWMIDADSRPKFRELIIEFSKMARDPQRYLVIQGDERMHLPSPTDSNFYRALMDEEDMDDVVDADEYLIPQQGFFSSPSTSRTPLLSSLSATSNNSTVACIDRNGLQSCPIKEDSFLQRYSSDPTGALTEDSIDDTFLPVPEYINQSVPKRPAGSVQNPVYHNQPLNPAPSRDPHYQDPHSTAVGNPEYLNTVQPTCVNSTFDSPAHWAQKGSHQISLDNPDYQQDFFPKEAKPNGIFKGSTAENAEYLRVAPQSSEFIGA

SMILES | pIC50 [1] | pIC50 [2] | pIC50 [3] | pIC50 [4]
Cc1ccnc(NC(=O)c2ccc(Oc3ccnc4[nH]nc(N[C@@H]5CCCN(C(=O)C6CCOCC6)C5)c34)cc2)c1 [compound 105, N-(4-methylpyridin-2-yl)-4-[(3-{[(3R)-1-(oxane-4-carbonyl)piperidin-3-yl]amino}-1H-pyrazolo[3,4-b]pyridin-4-yl)oxy]benzamide] | > 7.00 | 5.00 to 6.00 | < 5.00 | < 5.00
Cc1ccnc(NC(=O)c2ccc(Oc3ccnc4[nH]nc(NC5CCN(C#N)CC5)c34)cc2)c1 [compound 278, 4-(3-(1-cyanopiperidin-4-ylamino)-1H-pyrazolo[3,4-b]pyridin-4-yloxy)-N-(4-methylpyridin-2-yl)benzamide] | > 7.00 | 6.00 to 7.00 | 5.00 to 6.00 | < 5.00
CC1(C(=O)N2CCC[C@@H](Nc3n[nH]c4nccc(Oc5ccc(C(=O)Nc6ccccn6)cc5)c34)C2)CCOCC1 [compound 112, 4-[(3-{[(3R)-1-(4-methyloxane-4-carbonyl)piperidin-3-yl]amino}-1H-pyrazolo[3,4-b]pyridin-4-yl)oxy]N-(pyridin-2-yl)benzamide] | > 7.00 | 5.00 to 6.00 | < 5.00 | < 5.00
Cc1ccnc(NC(=O)c2ccc(Oc3ccnc4[nH]nc(N[C@@H]5CCCN(C(=O)CCN(C)C)C5)c34)cc2)c1 [compound 118, 4-[(3-{[(3R)-1-[3-(dimethylamino)propanoyl]piperidin-3-yl]amino}-1H-pyrazolo[3,4-b]pyridin-4-yl)oxy]-N-(4-methylpyridin-2-yl)benzamide] | > 7.00 | > 7.00 | 5.00 to 6.00 | < 5.00
Cc1cc(NC(=O)c2cccc(Nc3ccnc4[nH]nc(O[C@@H]5CCCN(C(=O)C6CC6)C5)c34)c2)ccc1C(C)C [compound 134, 3-[(3-{[(3R)-1-cyclopropanecarbonylpiperidin-3-yl]oxy}-1H-pyrazolo[3,4-b]pyridin-4-yl)amino]-N-[3-methyl-4-(propan-2-yl)phenyl]benzamide] | 6.00 to 7.00 | 5.00 to 6.00 | < 5.00 | < 5.00
COCCNc1n[nH]c2nccc(Oc3ccc(C(=O)Nc4cc(C(F)(F)F)ccn4)cc3)c12 [compound 236, 4-({3-[(2-methoxyethyl)amino]-1H-pyrazolo[3,4-b]pyridin-4-yl}oxy)-N-[4-(trifluoromethyl)pyridin-2-yl]benzamide] | 6.00 to 7.00 | – | 5.00 to 6.00 | < 5.00
Cc1cc(Oc2ccnc3[nH]nc(N[C@@H]4CCCN(C(=O)/C=C/CN(C)C5CC5)C4)c23)ccc1Oc1ccccc1 [compound 156] | > 7.00 | 6.00 to 7.00 | 6.00 to 7.00 | < 5.00
CCNC(=O)N1CCC[C@@H](Nc2n[nH]c3nccc(Oc4ccc(Oc5ccccc5)cc4C)c23)C1 [compound 235, (3R)-N-ethyl-3-{[4-(2-methyl-4-phenoxyphenoxy)-1H-pyrazolo[3,4-b]pyridin-3-yl]amino}piperidine-1-carboxamide] | > 7.00 | – | 5.00 to 6.00 | < 5.00

Results, then the molecule that gave them:

pIC50 [1] | pIC50 [2] | pIC50 [3] | pIC50 [4] | SMILES
> 7.00 | 6.00 to 7.00 | 5.00 to 6.00 | < 5.00 | COCCC(=O)N1CCC[C@@H](Nc2n[nH]c3nccc(Oc4ccc(C(=O)Nc5cc(C)ccn5)cc4)c23)C1 [compound 119, 4-[(3-{[(3R)-1-(3-methoxypropanoyl)piperidin-3-yl]amino}-1H-pyrazolo[3,4-b]pyridin-4-yl)oxy]-N-(4-methylpyridin-2-yl)benzamide]
> 7.00 | 6.00 to 7.00 | > 7.00 | > 7.00 | C=CC(=O)N1CCC[C@@H](Nc2n[nH]c3nccc(Oc4cccc(C(=O)Nc5cc(C(F)(F)F)ccn5)c4)c23)C1 [compound 191]
5.00 to 6.00 | 5.00 to 6.00 | < 5.00 | < 5.00 | CCNC(=O)N1CCC[C@@H](Nc2n[nH]c3nccc(Oc4ccc(-c5nc6ccccc6[nH]5)cc4)c23)C1 [compound 224, (3R)-3-({4-[4-(1H-1,3-benzodiazol-2-yl)phenoxy]-1H-pyrazolo[3,4-b]pyridin-3-yl}amino)-N-ethylpiperidine-1-carboxamide]
> 7.00 | 6.00 to 7.00 | 5.00 to 6.00 | < 5.00 | Cc1ccnc(NC(=O)c2ccc(Oc3ccnc4[nH]nc(N[C@@H]5CCCN(C(=O)C6(C)CCNCC6)C5)c34)cc2)c1 [compound 104, 4-[(3-{[(3R)-1-(4-methylpiperidine-4-carbonyl)piperidin-3-yl]amino}-1H-pyrazolo[3,4-b]pyridin-4-yl)oxy]-N-(4-methylpyridin-2-yl)benzamide]
> 7.00 | > 7.00 | 5.00 to 6.00 | < 5.00 | CN1CCC(C(=O)N2CCC[C@@H](Nc3n[nH]c4nccc(Oc5ccc(C(=O)Nc6cc(C(F)(F)F)ccn6)cc5)c34)C2)CC1 [compound 204, 4-[(3-{[(3R)-1-(1-methylpiperidine-4-carbonyl)piperidin-3-yl]amino}-1H-pyrazolo[3,4-b]pyridin-4-yl)oxy]-N-[4-(trifluoromethyl)pyridin-2-yl]benzamide]
> 7.00 | 6.00 to 7.00 | 5.00 to 6.00 | < 5.00 | Cc1ccnc(NC(=O)c2ccc(Oc3ccnc4[nH]nc(N[C@@H]5CCCN(C(=O)[C@H]6CCOC6)C5)c34)cc2)c1 [compound 116, N-(4-methylpyridin-2-yl)-4-[(3-{[(3R)-1-[(3S)-oxolane-3-carbonyl]piperidin-3-yl]amino}-1H-pyrazolo[3,4-b]pyridin-4-yl)oxy]benzamide]
6.00 to 7.00 | < 5.00 | < 5.00 | < 5.00 | CC#CC(=O)N1CCC[C@@H](Nc2n[nH]c3nccc(Oc4ccc(C(=O)Nc5cc(C)n(C)n5)cc4)c23)C1 [compound 185]
> 7.00 | 5.00 to 6.00 | – | < 5.00 | Cc1ccnc(NC(=O)c2ccc(Oc3ccnc4[nH]nc(N[C@@H]5CCCN(C(=O)c6ccc(Cl)cc6)C5)c34)cc2)c1 [compound 244, (R)-4-(3-(1-(4-chlorobenzoyl)piperidin-3-ylamino)-1H-pyrazolo[3,4-b]pyridin-4-yloxy)-N-(4-methylpyridin-2-yl)benzamide]
> 7.00 | 6.00 to 7.00 | – | < 5.00 | Cc1ccnc(NC(=O)c2ccc(Oc3ccnc4[nH]nc(N[C@@H]5CCCN(C(=O)c6ncco6)C5)c34)cc2)c1 [compound 240, (R)—N-(4-methylpyridin-2-yl)-4-(3-(1-(oxazole-2-carbonyl)piperidin-3-ylamino)-1H-pyrazolo[3,4-b]pyridin-4-yloxy)benzamide]
> 7.00 | 6.00 to 7.00 | – | < 5.00 | Cc1ccnc(NC(=O)c2ccc(Oc3ccnc4[nH]nc(N[C@@H]5CCCN(C(=O)c6nccs6)C5)c34)cc2)c1 [compound 241, (R)—N-(4-methylpyridin-2-yl)-4-(3-(1-(thiazole-2-carbonyl)piperidin-3-ylamino)-1H-pyrazolo[3,4-b]pyridin-4-yloxy)benzamide]
> 7.00 | 5.00 to 6.00 | – | < 5.00 | Cc1ccnc(NC(=O)c2ccc(Oc3ccnc4[nH]nc(N[C@@H]5CCCN(C(=O)c6cccc(F)c6)C5)c34)cc2)c1 [compound 247, (R)-4-(3-(1-(3-fluorobenzoyl)piperidin-3-ylamino)-1H-pyrazolo[3,4-b]pyridin-4-yloxy)-N-(4-methylpyridin-2-yl)benzamide]
6.00 to 7.00 | 5.00 to 6.00 | – | < 5.00 | CC(=O)N1CCC[C@@H](Nc2n[nH]c3nccc(Nc4cccc(C(=O)Nc5ccc(C(C)C)c(C)c5)c4)c23)C1 [compound 131, 3-[(3-{[(3R)-1-acetylpiperidin-3-yl]amino}-1H-pyrazolo[3,4-b]pyridin-4-yl)amino]-N-[3-methyl-4-(propan-2-yl)phenyl]benzamide]
